How the values were obtained:
Details in all cases: safener II alone, 150 g/ha
ZEAMX = assay: Greenhouse post-emergence test, damage to crop plant ZEAMX; type: in vivo, corn
Source text: (§1) For the post-emergence treatment, the test plants were first grown to a height of 3 to 20 cm, depending on the plant habit, and only then treated. Here, the herbicidal compositions were suspended or emulsified in water as distribution medium and sprayed using finely distributing nozzles. The respective component I was formulated as a 12% by weight strength emulsion concentrate, and component II as a 10% by weight suspension concentrate. Optionally components III can be used in their appropriate available formulation types. The components I, II and optionally III were introduced to the spray liquid with the amount of solvent system used for applying the active compound. The test period extended over 21 days. During this time, the plants were tended, and their response to the treatments with active compound was evaluated. The evaluation for the damage caused by the chemical compositions was carried out using a scale from 0 to 100%, compared to the untreated control plants. Here, 0 means no damage and 100 means complete destruction of the plants. […]

POLCO = assay: Greenhouse post-emergence test, herbicidal action against POLCO; type: in vivo, wild buckwheat
Source text: (§2) For the post-emergence treatment, the test plants were first grown to a height of 3 to 20 cm, depending on the plant habit, and only then treated. Here, the herbicidal compositions were suspended or emulsified in water as distribution medium and sprayed using finely distributing nozzles. The respective component I was formulated as a 12% by weight strength emulsion concentrate, and component II as a 10% by weight suspension concentrate. Optionally components III can be used in their appropriate available formulation types. The components I, II and optionally III were introduced to the spray liquid with the amount of solvent system used for applying the active compound. The test period extended over 21 days. During this time, the plants were tended, and their response to the treatments with active compound was evaluated. The evaluation for the damage caused by the chemical compositions was carried out using a scale from 0 to 100%, compared to the untreated control plants. Here, 0 means no damage and 100 means complete destruction of the plants. [table]

ABUTH = assay: Greenhouse post-emergence test, herbicidal action against ABUTH; type: in vivo, velvetleaf
Source text: as §2

AMARE = assay: Greenhouse post-emergence test, herbicidal action against AMARE; type: in vivo, common amaranth
Source text: as §2

TRZAS = assay: Greenhouse post-emergence test, damage to crop plant TRZAS; type: in vivo, spring wheat
Source text: as §1

HORVW = assay: Greenhouse post-emergence test, damage to crop plant HORVW; type: in vivo, winter barley
Source text: as §1

CHEAL = assay: Greenhouse post-emergence test, herbicidal action against CHEAL; type: in vivo, lambsquaters
Source text: as §2

Structure (SMILES): COc1ccccc1C(=O)NS(=O)(=O)c1ccc(C(=O)NC2CC2)cc1 [II, N-[[4-[(cyclopropylamino)carbonyl]phenyl]sulfonyl]-2-methoxybenzamide]
- damaging effect on ZEAMX (ZEAMX): has not shown damaging effect
- herbicidal activity on POLCO (POLCO): has not shown herbicidal activity
- herbicidal activity on ABUTH (ABUTH): has not shown herbicidal activity
- herbicidal activity on AMARE (AMARE): has not shown herbicidal activity
- damaging effect on TRZAS (TRZAS): has not shown damaging effect
- damaging effect on HORVW (HORVW): has not shown damaging effect
- herbicidal activity on CHEAL (CHEAL): has not shown herbicidal activity
